This note sets out measurements from patent US20060046972A1, “Cytotoxic nucleoside analog compound 003 for treating cancer” (Parker Hughes Institute, priority 2004, published 2006).

The structures appear in SMILES notation.

Data set [1] concerns Microsomal or cytosolic fractions of Nalm6 cells. The data set is described as follows: Enzyme kinetics of Compound 003 metabolism in subcellular fractions, Nalm6. The format is in vitro ADME, human. How it is done: 1−3×10^8 Nalm6 and BT20 cells were washed with PBS, resuspended in homogenizing buffer containing 10 mM Tris-HCl (pH 7.4) and 250 mM sucrose. Cells were sonicated and spun at 10,000×g, and the resulting supernatant was centrifuged again at 100,000×g to isolate microsomal and cytosolic fractions. The microsomal pellet was resuspended in a buffer containing 10 mM Tris-HCl (pH 7.4), 250 mM sucrose, 1 mM EDTA, and 20% glycerol. Microsomes or cytosols of Nalm6 (80 μg. and 86 μg, respectively) and BT20 cells (59 μg and 160 μg, respectively) were preincubated with or without 1 mM paraoxon in Tris-HCl buffer (pH 7.4) in a total volume of 250 μl for 10 minutes; 1. mM COMPOUND 003 was then added to the incubation mixture, and the reactions were allowed to proceed for another 30 minutes and terminated by addition of 125 μl of acetone. Protein precipitation was then removed by centrifugation; 100 μl of the supernatant was injected directly into the HPLC.
2.2.9 Enzyme Kinetics of Compound 003 Metabolism Microsomal or cytosolic fractions of Nalm6 and BT20 cells were incubated with COMPOUND 003 at various concentrations from 10 μM to 1.2 mM in similar reaction conditions as described above, except without the inhibitor. The reactions were allowed to proceed for 40 minutes. Km and Vmax in the Michaelis-Menten model were estimated by WinNonlin program (Scientific Consulting, Inc.)

Data set [2] is described as follows: Stability in plasma. The data set is classed as in vitro ADME. As for the experimental part:
Plasma samples, simulated gastric fluid and intestinal fluids (United State Pharmacopeia XXII methods) were separately spiked with COMPOUND 003 to yield final concentrations of 500 μM. Spiked samples were incubated at 37° C. At a predetermined time (5, 10, 15, 30 60 and 120 minutes), an aliquot (200 μl) of the spiked plasma sample was extracted as described above.

Data set [3] deals with MOLT-3, human T lymphoma. Nature of the data set: DNA flow cytometry of cell cycle arrest, MOLT-3. The conditions noted are these: 100 μM, 48 hour. The data set is classed as cell-based. As for the experimental part:
Exponentially growing tumor cells were cultured at 1×10^6 cells/ml in clonogenic medium (RPMI 1640 medium +1% penicillin/streptomycin +10% heat-inactivated fetal bovine serum, 2 mML-glutamine, and 10 mM Hepes buffer) in the presence or absence of 100 μM compound 003 for 48 hour at 37° C., 5% CO2. At 48 h, cells were washed two times in fresh clonogenic medium, trypsinized, fixed in ice cold ethanol and labeled with propidium iodide to quantify their DNA content, as described previously (See, for example, Navara, et al., 2001, Anticancer Drugs. 12:369). Quantitative DNA analysis was performed on a Becton Dickenson Calibur flow cytometer equipped with a Consort 40 computer using the COTFIT program, which includes CELLCY, a cell cycle distribution function that fits DNA content histograms and calculates-the percentages of cells in G, S, and GM phases of the cell cycle, as described, for example, in Uckun et al., 1996, J Biol Chem. 271, 6389.
For orientation: Flow cytometry measures light scatter and fluorescence of single cells or particles in a stream.

Data set [4] concerns centrosomes isolated from an EBV-transformed B-lymphoblastoid cell line. The data set is described as follows: Centrosomal regrowth assay of aster formation from isolated centrosomes. The format is biochemical. The conditions noted are these: 100 μM. As for the experimental part:
Centrosome isolation from an EBV-transformed B-lymphoblastoid cell line was performed following a slight modification of a literature procedure (See, for example, Moudjou and Bomens, 1994, Cell Biology: A Laboratory Handbook, p. 595. Academic Press, Inc, New York; and Cell Biology: A Laboratory Handbook, 1994).
Briefly, cells were grown to a density of 1×10^6 per ml. A total of 1×10^9 cells were treated for 1 hour with […] and […]. All subsequent procedures were performed at 4° C. Firstly, cells were transferred into sterile conical 50 ml tubes and sedimented at 1,200×g for 5 minutes. Cells were then washed twice with 50 ml of filtered tris buffered saline (10 mM Tris-HCl, pH 7.4, 150 mM NaCl, TBS) by gentle resuspension with a pasteur pipette and sedimented at 1,200×g for 5 minutes. Cells were next washed with 8% sucrose in ten times diluted TBS and sedimented at 1,200×g for 5 minutes. Cells were lysed with 100 ml of 1 mM Hepes lysis buffer (0.5% Nonidet-P40), 0.5mM MgCl2, 0.1% β-Mercaptoethanol, 1 mM PMSF, 100 μg/ml aprotinin, 1 μg/ml leupeptin and 1 μg/ml pepstatin), pH 7.2. The swollen nuclei were sedimented at 1,200×g for 10 minutes and the supernatant was filtered through a 70 μm nylon cell strainer. After the addition of 1M Hepes (10 mM final) and 5 μl of 10 mg/ml DNase (1 μg/ml final), the lysate was incubated for 30 minutes at 4° C. […]

As a reminder, the Km is the substrate concentration at which the rate is half of its maximum. What is called Vmax is the top rate of the reaction or transport when substrate is in excess. For `COC(=O)C(C)NP(=O)(OCC1OC(n2cc(C)c(=O)[nH]c2=O)CC1N=[N+]=[N-])Oc1ccc(OC)cc1` (stereo not drawn) [Compound 003, 3′-azidothymidine 5′-[p-methoxyphenylmethoxyalaninyl phosphate]], in data set [1] (cytosolic fraction), the Km is 765 µM and the Vmax was determined as 541 pmol/mg/min. In data set [1] (microsomal fraction), the Km stood at 163 µM and the Vmax was 82.3 pmol/mg/min. Moreover, the decomposition product result in data set [2] was “decomposed to mainly form ala-AZT-MP”. Further, the stability entry in data set [2] (500 μM, 37° C.) was “unstable in plasma”. Also, the “share of Compound 003 decomposed” value in data set [2] (500 μM, 37° C., within 5 minutes) was above 99%. For the same compound, in data set [3], the cell cycle arrest entry is recorded as “caused G2 arrest”. The “nucleation of microtubules and aster growth from isolated centrosomes” value in data set [4] is “inhibited the ability of the centrosomes to nucleate and sufficiently grow microtubule asters”.
